The source of these data is patent US7230016B2, “Pioglitazone salts, such as pioglitazone sulfate, and pharmaceutical compositions and processes using the same” (priority 2003, dated 2007).

Data set [1] can be described thus: Aqueous solubility of pioglitazone salts derived from strong acids or bases. It is filed as physicochemical. The following applies: for soluble in H2O: aqueous solubility of the salt, * = the salt is dissolved in water to form a blurred solution. The procedure: As used herein a pioglitazone salt is considered “water-soluble” if a salt concentration of at least 7 mg/ml can be achieved, even if only momentarily, in distilled water at 25° C. […] The base salts also dissolved in water but they typically formed an unclear solution. The water-soluble salts of pioglitazone are useful as active agents in forming a pioglitazone pharmaceutical composition, especially solid dosage forms, as is described herein after. […] Depending on the salt, the precipitation of a solid begins as quickly as within a few minutes or after several hours. The time of precipitation also depends on nucleation. In particular, once a solid forms, the solution quickly precipitates to form a complete suspension.

Data set [2] can be described thus: Dissolution experiment comparing pioglitazone salts (Example 2). To be noted: room temperature; for Dissolution (instant dissolution rate): 0.25 mmol salt added into 10 ml H2O with stirring, ** = salt dissolved partially to form an unclear solution; for later behaviour of the solution (turning into suspension / pioglitazone base) / kind of solution yielded on addition to water: 0.25 mmol salt in 10 ml H2O, stirring; for kind of solution yielded on addition to water: tosylate and 2-napsylate within 1 minute. The class given is physicochemical. The procedure:
At room temperature, each pioglitazone salt (0.25 mmol) was added into 10 ml H2O with stirring.

Data set [3] in a line: Stability of pioglitazone sulfate aqueous solution with HPMC as solution stabilizer (Examples 3 and 4). The class given is physicochemical. From the text:
Specifically, a solution stabilizer can be effectively added to a pioglitazone sulfate aqueous solution to enhance the stability. As used herein a “solution stabilizer” is an additive that when present in some amount in an aqueous pioglitazone sulfate solution, provides a statistically significant delay in the precipitation of pioglitazone base from the solution in comparison to the same solution held under the same conditions but without the solution stabilizer contained therein. […] Typically the solution stabilizer is a polymer, such as a water-soluble polymer, or a crown-ether. The solution stabilizer may be fully dissolved, partly dissolved and/or swelled, or not dissolved in the aqueous solution, but is preferably dissolved therein. Preferably the solution stabilizer is hydroxypropylmethylcellulose (HPMC), polyvinylpyrrolidone, or cyclodextrin, and most preferably HPMC. The amount of solution stabilizer is generally within the range of 1 to 500 mg/ml of the solution, typically 1 to 200 mg/ml, more typically 10 to 100 mg/ml. A stabilized pioglitazone sulfate solution is thus especially useful as a liquid pharmaceutical formulation and/or for making a liquid pharmaceutical formulation. The following system was tested using HPMC as an additive. […] To a clear solution containing 1.0 g of hydroxypropylmethylcellulose (HPMC) in 25 ml of H2O was added 125 mg of pioglitazone sulfate with stirring.

Data set [4] is described as follows: Properties of pioglitazone sulfate (solid state, methanol solubility, pH of aqueous solution). The class given is physicochemical. The procedure: Of the water-soluble salts, pioglitazone sulfate is the most preferred. As used herein “pioglitazone sulfate” means the salt formed from pioglitazone and sulfuric acid. The salt preferably has approximately a 1:1 molar ratio of pioglitazone moiety to sulfuric acid moiety, especially in solid form. […] Pioglitazone sulfate may be isolated in solid state as a white or almost white crystalline material. It melts at a temperature of about 105 to 115° C., without decomposition. […] Pioglitazone sulfate is thus an especially useful form of pioglitazone for making pharmaceutical formulations, e.g., as an active agent. The pioglitazone sulfate can precipitate from the solution spontaneously, but more likely some step such as cooling, concentrating, adding a seeding crystal, or adding a contrasolvent is advantageously and/or necessarily carried out. As pioglitazone sulfate is soluble in methanol, the addition of a contrasolvent is advantageous for precipitating the solid state salt. […] The size and shape of the formed crystals may be modified by known ways, for instance by precipitation regimen or by using crystallization modifiers. Solid state pioglitazone sulfate is a stable, easily handled solid material, and it may be used as an equivalent to pioglitazone hydrochloride in pharmaceutical compositions for treating pioglitazone-treatable diseases. […] Liquid compositions, particularly aqueous compositions, may include a solution stabilizer as indicated above. The stabilizer preferably comprises a water-soluble polymer, such as hydroxypropylmethylcellulose. The concentration of the polymer in the solution can be within any of the above-described ranges but most preferably is within the range from 0.1 to 10% (w/V) of the total volume. An aqueous solution of pioglitazone sulfate typically has a pH of about 4, which is well suited for both parenteral and peroral compositions.

The conditions of data set [5]: cited from earlier work.

Entries after “also recorded” stand apart in the source; their conditions may differ. Counter-ions that a name gives are not always drawn. Like-named read-outs stand apart in the source and are kept apart here.

Consider `CCc1ccc(CCOc2ccc(CC3SC(=O)NC3=O)cc2)nc1` (stereo not shown) [pioglitazone base, 5-[[4-[2-(5-ethyl-2-pyridinyl)-ethoxy]phenyl]methyl]-2,4-thiazolidinedione, reference compound], for which, in data set [1], the “solubility in water” value is listed as “so low”.

Take `CCc1ccc(CCOc2ccc(CC3SC(=O)NC3=O)cc2)nc1` (stereo not shown) [Na salt]: the “soluble in H2O” value in data set [1] is “yes*”.

With `CCc1ccc(CCOc2ccc(CC3SC(=O)NC3=O)cc2)nc1` (stereo not shown) [Hydrobromide], the “soluble in H2O” value in data set [1] is reported as “No”.

Consider `CCc1ccc(CCOc2ccc(CC3SC(=O)NC3=O)cc2)nc1` (stereo not shown) [K salt], for which, in data set [1], the “soluble in H2O” value is on record as “yes*”.

On to `CCc1ccc(CCOc2ccc(CC3SC(=O)NC3=O)cc2)nc1` (stereo not shown) [Tosylate], for which, in data set [2], the “Dissolution (instant dissolution rate)” value is “yes/no**”, the “later behaviour of the solution (turning into suspension / pioglitazone base)” value is on record as “quickly turned into a suspension” and the “kind of solution yielded on addition to water” value (from here on “kind of solution yielded”) is recorded as “unclear solutions”.

`CCc1ccc(CCOc2ccc(CC3SC(=O)NC3=O)cc2)nc1` (stereo not shown) [2-Napsylate]: the “soluble in H2O” value in data set [1] is “Slight”. For the same compound, in data set [2], the “Dissolution (instant dissolution rate)” value is “yes/no**”, the “later behaviour of the solution (turning into suspension / pioglitazone base)” value is “quickly turned into a suspension” and the “kind of solution yielded” value is given as “unclear solutions”.

Regarding `CCc1ccc(CCOc2ccc(CC3SC(=O)NC3=O)cc2)nc1` (stereo not shown) [Choline salt], the “soluble in H2O” value in data set [1] is reported as “yes*”.

Regarding `CCc1ccc(CCOc2ccc(CC3SC(=O)NC3=O)cc2)nc1` (stereo not shown) [Sulfate, pioglitazone sulfate], in data set [1], the “soluble in H2O” value is reported as “Yes”, the “dissolution in water” value is recorded as “dissolved instantly in water” and the “solubility in water” value is “superior aqueous solubility”. The “stability of the water solution (precipitation of pioglitazone base)” value in data set [1] (aqueous solution without stabilizer) is “can stably remain in an aqueous solution for hours; also recorded: will eventually, after a trace of solid appears, turn into a suspension of pioglitazone base”. The “dissolution in HPMC water solution” value in data set [3] (100 mg in HPMC water solution (2%, 25 ml)) was “easily dissolved”. Also, in data set [3] (125 mg added with stirring to 1.0 g HPMC in 25 ml H2O), the “dissolution in HPMC water solution” value is “A clear solution was formed”. In addition, in data set [3] (125 mg in 1.0 g HPMC / 25 ml H2O, stirred at room temperature for more than one month), the “stability of the HPMC-stabilized solution” value is given as “No obvious solid appeared”. Further, the “stability of the HPMC-stabilized solution” value in data set [3] (0.4% w/v pioglitazone sulfate in 2% HPMC water solution, room temperature, no obvious precipitation of a solid) is “stable at room temperature for at least four weeks”. In addition, in data set [2], the “Dissolution (instant dissolution rate)” value was “Yes”, the “later behaviour of the solution (turning into suspension / pioglitazone base)” value was “slowly turned into a suspension” and the “kind of solution yielded” value is reported as “clear solutions”. In addition, the “pH of aqueous solution” value in data set [4] (aqueous solution) was “about 4”. Moreover, the solubility in methanol entry in data set [4] (methanol) was “soluble”. The “hygroscopicity of the solid compound” value in data set [4] (solid) was “not hygroscopic”. For the same compound, the “stability of the solid state material” value in data set [4] (solid state) is given as “stable”.

With `CCc1ccc(CCOc2ccc(CC3SC(=O)NC3=O)cc2)nc1` (stereo not shown) [Hydrochloride, Pioglitazone hydrochloride], in data set [1] (hydrochloride), the “soluble in H2O” value is recorded as “No” and the “dissolution in water” value is on record as “did not dissolve in water”. In data set [1] (no base (neutralizing agent) used), the “behaviour of methanolic solution poured into water” value was “pioglitazone base quickly precipitates”. In data set [5] (N,N-dimethylformamide), the “solubility in N,N-dimethylformamide” value was “dissolves well”. Besides, the solubility in acetone entry in data set [5] (acetone) is “very slightly soluble”. Moreover, the solubility in acetonitrile entry in data set [5] (acetonitrile) is “very slightly soluble”. For the same compound, the “solubility in anhydrous ethanol” value in data set [5] (anhydrous ethanol) is “slightly soluble”. The solubility in dimethyl-sulfoxide entry in data set [5] (dimethyl-sulfoxide) is reported as “dissolves well”. In data set [5] (ether), the solubility in ether entry was “insoluble”. Besides, the “stability of the crystalline material” value in data set [5] (room temperature and under moisture) is recorded as “stable”. In addition, the solubility in water entry in data set [5] (water, hydrochloride) is listed as “practically insoluble; also recorded: extremely insoluble”.

`CCc1ccc(CCOc2ccc(CC3SC(=O)NC3=O)cc2)nc1` (stereo not shown) [Ca salt]: the “soluble in H2O” value in data set [1] is listed as “yes*”.

Turning to `CCc1ccc(CCOc2ccc(CC3SC(=O)NC3=O)cc2)nc1` (stereo not shown) [Mesylate], in data set [1], the “soluble in H2O” value was “Yes” and the “dissolution in water” value is on record as “dissolved instantly in water”.

Take `CCc1ccc(CCOc2ccc(CC3SC(=O)NC3=O)cc2)nc1` (stereo not shown) [Edisylate]: in data set [1], the “soluble in H2O” value is reported as “Yes”. For the same compound, in data set [1] (listed as ethane-di-sulfonate), the “dissolution in water” value is on record as “dissolved instantly in water”. Moreover, the “Dissolution (instant dissolution rate)” value in data set [2] (listed as ethane-disulfonate) is on record as “Yes”. In data set [2] (listed as ethane disulfonate), the “later behaviour of the solution (turning into suspension / pioglitazone base)” value is “slowly turned into a suspension” and the “kind of solution yielded” value was “clear solutions”.
